Values joined by “and” are separate entries in the source; they are usually repeats but may differ in a detail not shown here. Equal entries are not always repeated. Where two headings read alike, the source gives them in different places.
Legend:
[1] = log P by HPLC on reversed-phase C18 columns (OECD Guideline 117); format: physicochemical; conditions: for logP[a]: method [a]; for logP[b]: method [b]; for log P[a]: acidic range; for chromatographic logP: reversed-phase C18 HPLC column; for log P[n]: neutral range
Procedure: The log P values were determined in accordance with OECD Guideline 117 (EC Directive 92/69/EEC) by HPLC (high-performance liquid chromatography) using reversed-phase (RP) columns (C18), by the following methods:
[a] The LC-MS determination in the acidic range was carried out at pH 2.7 with 0.1% aqueous formic acid and acetonitrile (contains 0.1% formic acid) as mobile phases; linear gradient from 10% acetonitrile to 95% acetonitrile.
[b] LC-MS determination in the neutral range was carried out at pH 7.8 with 0.001 molar aqueous ammonium hydrogencarbonate solution and acetonitrile as mobile phases; linear gradient from 10% acetonitrile to 95% acetonitrile.

[2] = system: green peach aphid (Myzus persicae); assay: Myzus persicae spray test (Chinese cabbage leaf discs); format: in vivo; conditions: application rate 500 g/ha, after 5 or 6 days, Chinese cabbage leaf discs
Procedure: Myzus persicae—Spray Test
Solvent: 78 parts by weight of acetone • • 1.5 parts by weight of dimethylformamide
Emulsifier: alkylaryl polyglycol ether
To produce a suitable active compound preparation, 1 part by weight of active compound is dissolved using the stated parts by weight of solvent and made up with water containing an emulsifier concentration of 1000 ppm until the desired concentration is attained. To produce further test concentrations, the preparation is diluted with emulsifier-containing water.
Discs of Chinese cabbage leaves (Brassica pekinensis) infested by all stages of the green peach aphid (Myzus persicae) are sprayed with an active compound preparation of the desired concentration.
After 5 or 6 days, the efficacy in % is determined. 100% means that all the aphids were killed; 0% means that no aphids were killed.

[3] = pH 2.7, 0.1% aqueous formic acid / acetonitrile
[4] = pH 2.7, acidic range, pH 2.7, 0.1% aqueous formic acid / acetonitrile, read-out: log P[a]
[5] = pH 7.8, 0.001 molar aqueous ammonium hydrogencarbonate / acetonitrile
[6] = pH 2.7, method [a], read-out: logP[a]
[7] = pH 7.8, method [b], read-out: logP[b]

logP[a] [1] | logP[b] [1] | SMILES | efficacy (aphids killed) [2] [%] | further results
0.28 | 1.05 | CN(C(=O)c1cnc(SCC(=O)O)n1C)c1cccnc1 [I-A-29] |  | 
 |  | Cc1cc(C)nc(Sc2ncc(C(=O)O)n2C)n1 [IV-1] |  | log P[a] [1, 3]: 0.81
 | 0.89 | CN(C(=O)c1cnc(SCc2nccn2C)n1C)c1cccnc1 [I-A-118] |  | 
0.76 | 0.96 | CN(C)C(=O)c1cccc([S+]([O-])c2ncc(C(=O)N(C)c3cccnc3)n2C)c1 (centres unmarked) [I-A-91] |  | 
 |  | Cn1cnc(C(=O)OC(C)(C)C)c1 [XVII-1, tert-butyl 1-methyl-1H-imidazole-4-carboxylate] |  | chromatographic logP [1, 4]: 0.74
 |  | Cn1c(C(=O)O)cnc1SCC1CC1 [IV-2] |  | log P[a] [1, 3]: 0.62; log P[n] [1, 5]: −0.18
1.68 | 1.78 | CN(C(=O)c1cnc(Sc2ccccc2[N+](=O)[O-])n1C)c1cccnc1 [I-A-16] | 90 | 
0.39 | 1.15 | CN(C(=O)c1cnc(SCc2cccnc2)n1C)c1cccnc1 [I-A-119] | 90 | 
1.71 | 1.77 | CN(C(=O)c1cnc(Sc2cccc([N+](=O)[O-])c2)n1C)c1cccnc1 [I-A-68] | 100 | 
0.67 and 0.71 |  | CC(=O)CSc1ncc(C(=O)N(C)c2cccnc2)n1C [I-A-23] | 90 | 
0.20 | 0.85 | CN(C(=O)c1cnc(SCc2cncn2C)n1C)c1cccnc1 [I-A-114] |  | 
 |  | CN(C(=O)c1cncn1C)c1cccnc1 [XV-1] |  | log P[n] [1, 5]: 0.42
 |  | Cn1cc(C(=O)OC(C)(C)C)nc1Br [XVIII-1, tert-butyl 2-bromo-1-methyl-1H-imidazole-4-carboxylate] |  | chromatographic logP [1, 4]: 1.27
1.28 | 1.40 | Cc1cc([N+](=O)[O-])nn1CSc1ncc(C(=O)N(C)c2cccnc2)n1C [I-A-131] | 90 | 
0.71 | 1.54 | CCSc1ncc(C(=O)Nc2cccnc2)n1C [I-A-41] | 90 | 
1.59 | 1.74 | COc1ccccc1Sc1ncc(C(=O)N(C)c2cccnc2)n1C [I-A-72] |  | 
1.20 | 1.34 | CCOC(=O)CSc1ncc(C(=O)N(C)c2cccnc2)n1C [I-A-24] | 90 | 
0.97 | 1.28 | CN(C(=O)c1cnc(SCC(=O)C2CC2)n1C)c1cccnc1 [I-A-31] | 90 | 
1.12 | 1.27 | COC(=O)c1cnc(Sc2ncc(C(=O)N(C)c3cccnc3)n2C)n1C [I-A-143] |  | 
0.59 | 0.94 | CN(C(=O)c1cnc(SCC(=O)NC2CC2)n1C)c1cccnc1 [I-A-132] | 90 | 

logP[a] [1] | logP[b] [1] | SMILES | efficacy (aphids killed) [2] [%] | further results
1.01 | 1.10 | CN(C(=O)c1cnc(S(=O)(=O)c2ccccn2)n1C)c1cccnc1 [I-A-85] |  | 
 |  | Cn1cc(C(=O)O)nc1Br [XIX-1, 2-bromo-1-methyl-1H-imidazole-4-carboxylic acid] |  | chromatographic logP [1, 4]: 0
1.04 | 1.22 | CCN(C(=O)c1cnc(Sc2ncccn2)n1C)c1cccnc1 [I-A-98] | 90 | 
 |  | CN(C(=O)c1cnc(S(=O)(=O)c2ccc(F)cc2)n1C)c1ccc[n+]([O-])c1 [I-A-83] |  | chromatographic logP [1, 6]: 1.12; chromatographic logP [1, 7]: 1.23; pest or weed control at 500 g/ha ([2]; Myzus persicae, foliar, read-out: efficacy (aphids killed)): 90%
1.23 |  | Cc1cnc(Sc2ncc(C(=O)N(C)c3cccnc3)n2C)nc1C [I-A-103] | 100 | 
1.81 | 1.87 | CN(C(=O)c1cnc(S(=O)(=O)c2cccc(Cl)c2)n1C)c1cccnc1 [I-A-73] | 90 | 
1.12 | 1.29 | CN(C)C(=O)c1ccccc1S(=O)(=O)c1ncc(C(=O)N(C)c2cccnc2)n1C [I-A-92] |  | 
1.25 | 1.31 | CN(C(=O)c1c(Br)nc(Sc2ncccn2)n1C)c1cccnc1 [I-A-13] |  | 
 |  | COC(=O)c1cnc(SCC2CC2)n1C [VIII-2] |  | log P[a] [1, 3]: 2.06; log P[n] [1, 5]: 2.26
1.45 | 1.55 | CN(C(=O)c1cnc([S+]([O-])c2cccc(Cl)c2)n1C)c1cccnc1 (centres unmarked) [I-A-74] | 90 | 
1.34 | 1.55 | CN(C(=O)c1cnc(SCc2ccco2)n1C)c1cccnc1 [I-A-120] | 90 | 
1.72 | 2.03 | COc1cccc(F)c1CSc1ncc(C(=O)N(C)c2cccnc2)n1C [I-A-124] | 90 | 
0.76 | 1.12 | CN(C(=O)c1cnc(SCc2ccn(C)n2)n1C)c1cccnc1 [I-A-115] |  | 
2.75 | 2.92 | CN(C(=O)c1cnc(Sc2ccc(C(C)(C)C)cc2)n1C)c1cccnc1 [I-A-63] |  | 
2.32 | 2.44 | Cc1cccc(C)c1CSc1ncc(C(=O)N(C)c2cccnc2)n1C [I-A-129] |  | 
2.51 | 2.62 | CN(C(=O)c1cnc(SCc2ccc(Cl)c(Cl)c2)n1C)c1cccnc1 [I-A-121] |  | 
 |  | COC(=O)c1cnc(Sc2nc(C)cc(C)n2)n1C [VIII-1] |  | log P[a] [1, 3]: 1.78; log P[n] [1, 5]: 1.80
 |  | CN(C(=O)c1cncn1Cc1ccccc1)c1cccnc1 [1-benzyl-N-methyl-N-(pyridin-3-yl)-1H-imidazole-5-carboxamide] |  | chromatographic logP [1, 4]: 0.85; chromatographic logP ([1]; pH 7.8, neutral range, pH 7.8, 0.001 molar aqueous ammonium hydrogencarbonate / acetonitrile, read-out: log P[n]): 1.4
1.58 | 1.68 | CN(C(=O)c1cnc(S(=O)(=O)c2ccc([N+](=O)[O-])cc2)n1C)c1cccnc1 [I-A-90] |  | 
1.69 | 1.92 | CN(C(=O)c1cnc(SCc2c(F)cccc2F)n1C)c1cccnc1 [I-A-123] | 90 | 

logP[a] [1] | logP[b] [1] | SMILES | efficacy (aphids killed) [2] [%] | further results
 |  | CN(C(=O)c1cnc(Sc2ncccn2)n1Cc1ccccc1)c1cccnc1 [I-A-111, 1-benzyl-N-methyl-N-(pyridin-3-yl)-2-(pyrimidin-2-ylsulphanyl)-1H-imidazole-5-carboxamide] |  | chromatographic logP [1, 6]: 1.73; chromatographic logP [1, 7]: 1.78
 |  | CN(C(=O)c1cn(C)c(Br)n1)c1cccnc1 [XXI-1] |  | log P[n] [1, 5]: 0.76
1.37 | 1.47 | CN(C(=O)c1cnc(S(=O)(=O)c2ccccc2)n1C)c1cccnc1 [I-A-88] |  | 
1.89 | 2.26 | CN(C(=O)c1cnc(SC2CCCCC2)n1C)c1cccnc1 [I-A-17] |  | 
 |  | CNC(=O)CSc1ncc(C(=O)N(C)c2cccnc2)n1C [I-A-33] |  | chromatographic logP [1, 6]: 0.33; chromatographic logP [1, 7]: 0.62
0.35 | 0.55 | CNC(=O)CS(=O)(=O)c1ncc(C(=O)N(C)c2cccnc2)n1C [I-A-42] |  | 
 |  | CN(C(=O)c1cnc(Br)n1C)c1cccnc1 [XI-1] |  | log P[a] [1, 3]: 0.65; log P[n] [1, 5]: 0.93
1.89 | 2.09 | CN(C(=O)c1cnc(SCc2c(F)cccc2Cl)n1C)c1cccnc1 [I-A-127] | 90 | 
0.88 | 1.09 | COC(=O)CSc1ncc(C(=O)N(C)c2cccnc2)n1C [I-A-25] | 90 | 
0.11 | 0.50 | CN(C(=O)c1cnc(SCC(N)=O)n1C)c1cccnc1 [I-A-32] |  | 
0.59 | 0.81 | CN(C)C(=O)CSc1ncc(C(=O)N(C)c2cccnc2)n1C [I-A-34] |  | 
2.14 | 2.19 | CN(C(=O)c1cnc([S+]([O-])c2ccc(C(C)(C)C)cc2)n1C)c1cccnc1 (centres unmarked) [I-A-75] | 90 | 
 |  | Cn1c(C(=O)O)cnc1Br [IX-1, 1-methyl-2-bromoimidazole-5-carboxylic acid] |  | chromatographic logP [1, 4]: 0.31
1.53 | 1.58 | COc1ccc(S(=O)(=O)c2ncc(C(=O)N(C)c3cccnc3)n2C)cc1 [I-A-81] |  | 
1.53 | 1.78 | CN(C(=O)c1cnc(SCC(=O)C(C)(C)C)n1C)c1cccnc1 [I-A-28] | 90 | 
2.53 | 2.55 | CN(C(=O)c1cnc(S(=O)(=O)c2ccc(C(C)(C)C)cc2)n1C)c1cccnc1 [I-A-76] |  | 
1.17 | 1.25 | CN(C)C(=O)c1ccccc1Sc1ncc(C(=O)N(C)c2cccnc2)n1C [I-A-67] | 90 | 
1.06 | 1.22 | COC(=O)C(C)(C)NC(=O)CSc1ncc(C(=O)N(C)c2cccnc2)n1C [I-A-133] |  | 

From patent US10368545B2, “Substituted 2-thioimidazolylcarboxamides as pesticides” (BAYER CROPSCIENCE AKTIENGESELLSCHAFT, priority 2015, dated 2019)
